Article PMC10318527, “Utilization of dietary mixed-linkage β-glucans by the Firmicute Blautia producta” (The Journal of Biological Chemistry, 2023)

Assays:
BpGH16MLG (BPGH16) = assay: Michaelis-Menten kinetics of BpGH16MLG on β-glucans (DNS assay); type: biochemical, Blautia producta ATCC 27340
Procedure: Then, reactions were terminated by boiling for 5 min. Enzymatic assays were determined with 3,5- dinitrosalicylic acid (DNS) assay ([85]). In brief, 0.05 g Na2SO3 and 1 g DNS were mixed in a 50 ml water-containing reagent bottle and stirred about 6 h using a magnetic stirrer. After that, 200 μl phenol was added and made up to 100 ml. A working solution of DNS was prepared by adding 50 μl glucose (20% (w/v) stock) in prepared 100 ml of reagent mixtures and immediately used for experiments without adding NaOH. 80 μl DNS reagent was added to the reaction mixtures and incubated at 100 °C for 10 min, followed by ice-cooling for 10 min. Consequently, recorded the developed color spectrophotometrically at 575 nm ([85]). A standard curve generated by different concentrations of maltose was used for determining released reducing sugars in each case.

BPGH16 mutant W362A = assay: Kinetics of BPGH16 mutant W362A (DNS assay); type: biochemical, Blautia producta ATCC 27340
Procedure: The residues R331, L358, E379, D381, E384, W362, and H398 of BpGH16MLG were mutated to Ala by the Q5Site-Directed Mutagenesis Kit (New England Biolabs, UK, catalogue no. E0554S). Wild-type plasmid BpGH16-pET28a(+) was used as a template, and mutagenic forward and reverse primers were developed using NEBaseChanger with subtle modifications (Table S4). A 25 μl PCR cocktail was prepared for mutating each residue. The final concentration of Q5 Hot Start High-Fidelity 2X Master Mix was 1X, each primer was at 0.5 μM, the amount of used template was 20 ng, and the rest of the volume was made up of nuclease-free water. PCR was executed using the following conditions-initial denaturation was performed at 98 °C for 1 min, for each cycle-denaturation, annealing, and extension (72 °C) were set for 10 s, 20 s, and 7 min, respectively. […] The mutant protein was then expressed as per the protocol mentioned earlier, and kinetics were performed with barley β-glucan.
Reactions were performed in 100 μl volume mixture using recombinant enzyme (final concentration at 0.1 mg/ml) in 50 mM sodium phosphate buffer (pH 5.7) at 37 °C for 1 h of incubation. […] Enzymatic assays were determined with 3,5- dinitrosalicylic acid (DNS) assay ([85]). […] Consequently, recorded the developed color spectrophotometrically at 575 nm ([85]). […]

[1] = native BPGH16, DNS assay, pH 5.7, 37 °C

Question: What does the source list for Barley β-glucan?
Answer: Km (BpGH16MLG (BPGH16); BpGH16MLG with barley MLG, no unit): 0.22 ± 0.04; kcat (BpGH16MLG (BPGH16); BpGH16MLG with barley MLG, no unit, in 1/s): 62 ± 1.23; Km (BpGH16MLG (BPGH16); [1]): 0.22 ± 0.04 mg/mL; kcat (BpGH16MLG (BPGH16); [1]): 62 ± 1.2 s⁻¹; kcat (BPGH16 mutant W362A): 0 s⁻¹
